Laboratory results from US20030190642A1, “Thymus expressed human cytochrome p450(p450tec)” (priority 2003, published 2003).

Target: T1, P450TEC (Homo sapiens, UniProt Q7Z449)
T1 construct: One of 5 clones contained a putative full length cytochrome, which we have named P450TEC; made in house; host or cells: Sf9 insect cells, recombinant baculovirus (pVL1392 transfer vector); microsomal fraction
T1 sequence (Q7Z449 1-544): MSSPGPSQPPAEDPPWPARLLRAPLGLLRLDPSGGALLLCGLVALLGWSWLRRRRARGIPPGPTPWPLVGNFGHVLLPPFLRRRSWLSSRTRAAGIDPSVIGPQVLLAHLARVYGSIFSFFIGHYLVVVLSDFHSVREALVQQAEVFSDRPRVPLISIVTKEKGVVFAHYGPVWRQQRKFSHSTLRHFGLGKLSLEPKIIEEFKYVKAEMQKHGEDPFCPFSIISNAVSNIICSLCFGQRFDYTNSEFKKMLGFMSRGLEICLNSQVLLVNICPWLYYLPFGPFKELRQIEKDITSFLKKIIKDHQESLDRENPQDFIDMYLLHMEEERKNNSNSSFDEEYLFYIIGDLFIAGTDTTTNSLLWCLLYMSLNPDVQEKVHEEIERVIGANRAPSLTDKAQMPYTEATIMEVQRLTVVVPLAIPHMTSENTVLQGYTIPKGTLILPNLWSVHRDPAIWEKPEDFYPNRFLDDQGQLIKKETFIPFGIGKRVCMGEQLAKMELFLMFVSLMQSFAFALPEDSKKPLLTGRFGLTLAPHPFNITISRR
Experiment: Arachidonic acid metabolism by baculovirus-Sf9-expressed P450TEC microsomes (HPLC, LC-MS)
Type: biochemical
Protocol: Cultured Sf9 insect cells expressing recombinant P450TEC were harvested 3 days after infection, washed twice with phosphate buffered saline (PBS) and resuspended in lysis buffer (100 mM Tris-HCl, pH 7.4, 1 mM EDTA, 0.5 M sucrose) containing protease inhibitor cocktail (Roche Diagnostics GmbH, Mannheim, Germany, 1 tablet per 10 ml lyses buffer). Cells were disrupted by brief sonication (5-8 bursts of 5 seconds duration) on ice using 550 Sonic Dismembrator (Fisher Scientific, Canada). The resulting cell lysates were successively centrifuged, at 800g, and 10,000g for 10 min each time at 4° C. Microsomal fractions from the 10,000g supernatants were pelleted by centrifugation at ˜1 00,000g for 60 min at 4° C. The pellet was then resuspended in microsomes storage buffer (10 mM Tris-HCl, pH 7.4, 5 mM MgCl2, 1mM EDTA, 150 mM KCI and 10% glycerol) and stored at −70° C. […]
For MS and MS/MS analyses of arachidonic acid metabolites, 5 μM of unlabeled arachidonic acid was incubated for 60 min. […] Similarly, ethyl acetate extracts from microsomal incubations without arachidonic acid was also processed and analyzed by LC-MS. […]

CCCCCC=CCC=CCC=CCC=CCCCC(=O)O [arachidonic acid, 5,8, 11, 14-eicosatetraenoic acid]
linearity of arachidonic acid metabolite formation with time (5 μM [1-14C] arachidonic acid, NADPH-CYP oxidoreductase+b5 and NADPH, 15, 30 and 60 min): directly porportional to time of incubation
metabolite formed from arachidonic acid by P450TEC (P450TEC microsomes, NADPH, 1 or 20 μM [1-14C] arachidonic acid, 60 min, 37° C.): monohydroxylated arachidonic acid
